Reference: US9278118B2, “Pharmaceutical combination for the treatment and/or chemosensibilization of refractory tumors to anticancer drugs” (Centro de Ingenieria Genetica Y Biotecnologia, priority 2006, dated 2016)
Where two headings read alike, the source gives them in different places.

Legend:
H-125 or OCI-AML3 cells = experiment: Cell viability (MTS) assay, simultaneous P15 peptide + cytostatic drug, 72 hours; assay type: cell-based, human
Procedure: Finally, the cell viability and the IC50 values were determined as above described in this invention.

[1] = system: H-125 or OCI-AML3 tumor cells; experiment: Cancer animal model, human tumor xenografted in nude mice, simultaneous administration; assay type: in vivo, nude mice (Nu/Nu, BalBC); conditions: for interaction with P15, antitumor effect in vivo: administered along with P15, FIG. 4; for antitumor effect (tumor volume): cytostatic 1 mg/kg/day i.p. concomitantly with P15 0.5 mg/kg/day i.p., 5 days, FIG. 1A-1C
Procedure: (§1) The animal model used in this invention was based on the implantation of human tumors in nude mice (Nu/Nu, BalBC). […] After tumor debut (approx. 30 mm^3), treatment was started using the pharmaceutical combination described in this invention. To evaluate the antitumor effect of the pharmaceutical combination, the tumor mass volume was measured and the respective volume was calculated using the formule: V=widght^2×lenght/2.
(§2) After tumor debut, the ingredients of the pharmaceutical combination were administered as follow: The P15 peptide in saline solution was administered intraperitoneal at 0.5 mg/kg/day during 5 days. Concomitantly, intraperitoneal injection of cisplatin (FIG. 1A), or cyclophosphamide (FIG. 1B) or Mitomycin (FIG. 1C) were performed at 1 mg/kg/day in the same frequency. The cytostatic drugs are also solved in saline solution. Tumor volume was registered as described above in this invention.

H-125 cells = experiment: Cell viability (MTS) assay, sequential: P15 pre-treatment, then cytostatic drug
OCI-AML3 cells = experiment: Animal model of AML, P15 + anti-leukemic chemotherapeutics; assay type: in vivo, nude mice (Nu/Nu, BalBC); conditions: combination with P15, animal model of AML; FIG. 3
Procedure: as §1, §2

SW948 cells [2] = experiment: Cell viability (MTS) assay, P15 pre-treatment on intrinsic drug-refractory tumor cells; assay type: cell-based, human
SW948 cells [3] = experiment: In vivo chemosensibilization, SW948 tumors in nude mice, sequential administration; conditions: P15 0.5 mg/kg/day i.p. 5 days, then cytostatic 5 mg/kg/day 5 days, FIG. 2A-2C
Procedure: The animal model used in this invention was based on the implantation of human tumors in nude mice (Nu/Nu, BalBC). Briefly, 5×10^6 H-125 or OCI-AML3 cells were suspended in Phosphate Buffer Solution (PBS) and inoculated subcutaneously. After tumor debut (approx. 30 mm^3), treatment was started using the pharmaceutical combination described in this invention. To evaluate the antitumor effect of the pharmaceutical combination, the tumor mass volume was measured and the respective volume was calculated using the formule: V=widght^2×lenght/2.
For this purpose, 5×10^6 SW948 cells were implanted in nude mice as previously described in this invention. After tumor debut the pharmaceutical combination was sequentially administered as follow: First, the P15 peptide ingredient was administered intraperitoneal at 0.5 mg/kg/day during 5 days. Subsequently, cisplatin (FIG. 2A), Paclitaxel (FIG. 2B) and doxorubicin (FIG. 2C) were administered at 5 mg/kg/day during further 5 days. […] These findings also provide the evidences that the pharmaceutical combination in this invention is able to bypass the commonly observed intrinsic tumor resistance when the ingredients are sequentially administered.

Nucleofosmin = experiment: P15-regulated protein profile, nuclear extracts of H-125 cells; assay type: cell-based, human; conditions: down-regulated Nucleofosmin, P15 40 minutes
T-Plastin = experiment: as above; assay type: cell-based, human; conditions: down-regulated T-Plastin, P15 40 minutes
[4] = system: Y-box1 transcription factor; experiment: as above; assay type: cell-based, human; conditions: down-regulated Y-box1 transcription factor, P15 40 minutes
Eritropoietin precursor = experiment: as above; assay type: cell-based, human; conditions: down-regulated Eritropoietin precursor, P15 40 minutes
[5] = system: Gliceraldehyde 6-phosphate deshydrogenase; conditions: down-regulated Gliceraldehyde 6-phosphate deshydrogenase; H-125 cells, P15 40 minutes
Procedure: (§3) H-125 cells were treated or not with the P15 peptide ingredient of the pharmaceutical combination described in this invention during 40 minutes. Subsequently, cell monolayers were washed with PBS and cells were scrapped from the surface. […] To analyze the P15-regulated proteins, the respective nuclear protein extracts were alternatively solved by 2D bidimensional gels (pH 4-7) and/or Liquid chromatography (nano HPLC) coupled to Mass spectrometer.
(§4) For this purpose, nuclear protein extracts coming from H-125 cells treated or not with the P15 peptide ingredient were analyzed as previously described in this invention.

[6] = system: Glucose-6-phosphate isomerase; conditions: down-regulated Glucose-6-phosphate isomerase; H-125 cells, P15 40 minutes
Procedure: as §3, §4

[7] = system: Heat Shock Proteins (HSP-27, -70 y -90); conditions: down-regulated Heat Shock Proteins (HSP-27, -70 y -90); H-125 cells, P15 40 minutes
Procedure: as §3, §4

Piruvate kinase = conditions: down-regulated Piruvate kinase; H-125 cells, P15 40 minutes
Procedure: as §3, §4

[8] = system: Proteasome activator complex; conditions: down-regulated Proteasome activator complex; H-125 cells, P15 40 minutes
Procedure: as §3, §4

[9] = system: S-gluthathione transferase; conditions: down-regulated S-gluthathione transferase; H-125 cells, P15 40 minutes
Procedure: as §3, §4

Tubulin alpha-1 = conditions: up-regulated Tubulin alpha-1; H-125 cells, P15 40 minutes
Procedure: as §3, §4

Tubulin beta-2 = conditions: up-regulated Tubulin beta-2; H-125 cells, P15 40 minutes
Procedure: as §3, §4

Tubulin beta-3 = conditions: up-regulated Tubulin beta-3; H-125 cells, P15 40 minutes
Procedure: as §3, §4

[10] = system: Ubiquitin activated E1 enzyme; conditions: down-regulated Ubiquitin activated E1 enzyme; H-125 cells, P15 40 minutes
Procedure: as §3, §4

[11] = system: Translational controled tumor protein; experiment: P15-regulated protein profile, nuclear extracts of H-125 cells; assay type: cell-based, human; conditions: down-regulated Translational controled tumor protein, P15 40 minutes
Prohibitin = experiment: as above; assay type: cell-based, human; conditions: up-regulated Prohibitin, P15 40 minutes
[12] = H-125 or OCI-AML3 cells, 72 hours, no P15, read-out: IC50, Cytostatic drug alone
[13] = H-125 or OCI-AML3 cells, 72 hours, simultaneous P15 50 μM, read-out: IC50, Cytostatic drug + P15 (50 μM)
[14] = read-out: IC50, Cytostatic drug + P15 (10 μM), H-125 or OCI-AML3 cells, 72 hours, simultaneous P15 10 μM
[15] = read-out: IC50, Cytostatic drug alone, H-125 cells, 72 hours, no P15 pre-treatment
[16] = Homo sapiens, H-125 or OCI-AML3 cells, 72 hours, no P15, read-out: IC50, Cytostatic drug alone
[17] = Homo sapiens, NCI-H125, read-out: IC50, Cytostatic drug alone
[18] = Homo sapiens, P15 pre-treatment, read-out: IC50, Cytostatic drug + P15 pre-treatment
[19] = Homo sapiens, no P15 pre-treatment, read-out: IC50, Cytostatic drug alone

IC50 (H-125 or OCI-AML3 cells; [13])	IC50 (H-125 or OCI-AML3 cells; [14])	IC50 (H-125 or OCI-AML3 cells; [16])	Molecule	IC50 (H-125 cells; [17])	further results
0.068 µM	0.11 µM	1 µM	Nc1ccn([C@@H]2O[C@H](CO)[C@@H](O)[C@@H]2O)c(=O)n1 [Cytarabine (AraC), cytarabine]	0.98 µM	interaction with P15, antitumor effect in vivo (OCI-AML3 cells): great synergistic interaction
0.003 µM	0.008 µM	0.017 µM	CC(=O)O[C@H]1C(=O)[C@@]2(C)[C@H]([C@H](OC(=O)c3ccccc3)[C@]3(O)C[C@H](OC(=O)[C@H](O)[C@@H](NC(=O)c4ccccc4)c4ccccc4)C(C)=C1C3(C)C)[C@]1(OC(C)=O)CO[C@@H]1C[C@@H]2O [Paclitaxel, paclitaxel]	0.017 µM	IC50 (SW948 cells [2]; [18]): 97 µM; IC50 (SW948 cells [2]; [19]): ≥ 1000 µM; chemosensibilization in vivo (tumor response to cytostatic) (SW948 cells [3]): revert the chemorefractory phenotype
–	–	–	O=P1(N(CCCl)CCCl)NCCCO1 (stereo not shown) [Cyclophosphamide, cyclophosphamide]	2.4 µM	IC50 (H-125 or OCI-AML3 cells; Homo sapiens, 72 h, read-out: IC50, Cytostatic drug alone): 2.4 µM; IC50 (H-125 or OCI-AML3 cells; read-out: IC50, Cytostatic drug + P15 (10 μM)): 1 µM; IC50 (H-125 or OCI-AML3 cells; read-out: IC50, Cytostatic drug + P15 (50 μM)): 0.085 µM; antitumor effect (tumor volume) [1]: complete tumor regression; IC50 (H-125 cells; read-out: IC50, Cytostatic drug + P15 pre-treatment): 0.1 µM
0.02 µM	0.06 µM	0.78 µM	COc1cc([C@@H]2c3cc4c(cc3[C@@H](O[C@@H]3O[C@@H]5CO[C@@H](C)O[C@H]5[C@H](O)[C@H]3O)[C@H]3COC(=O)[C@H]23)OCO4)cc(OC)c1O [Etoposide, etoposide]	0.561 µM	interaction with P15, antitumor effect in vivo [1]: synergistic interactions
0.076 µM	0.2 µM	0.423 µM	COc1cccc2c1C(=O)c1c(O)c3c(c(O)c1C2=O)C[C@@](O)(C(=O)CO)C[C@@H]3O[C@H]1C[C@H](N)[C@H](O)[C@H](C)O1 [Doxorubicin, doxorubicin]	0.423 µM	IC50 (SW948 cells [2]; [18]): 320 µM; IC50 (SW948 cells [2]; [19]): ≥ 1000 µM; chemosensibilization in vivo (tumor response to cytostatic) (SW948 cells [3]): revert the chemorefractory phenotype
0.008 µM	0.1 µM	0.856 µM	CC[C@]1(O)C[C@H]2CN(CCc3c([nH]c4ccccc34)[C@@](C(=O)OC)(c3cc4c(cc3OC)N(C=O)[C@H]3[C@@](O)(C(=O)OC)[C@H](OC(C)=O)[C@]5(CC)C=CCN6CC[C@]43[C@@H]65)C2)C1 [Vincristin, vincristin]	0.856 µM	–
0.7 µM	1.2 µM	2 µM	CC(C)C[C@H](NC(=O)[C@H](Cc1ccccc1)NC(=O)c1cnccn1)B(O)O [Velcade, Bortezomib]	2 µM	–
–	–	–	CWMSPRHLGTC [P15]	–	Inhibition rate (Nucleofosmin): 48; Inhibition rate (T-Plastin): 3.34; Inhibition rate [4]: 3.33; Inhibition rate (Eritropoietin precursor): 120; Inhibition rate [5]: 6.62; Inhibition rate [6]: 8.53; Inhibition rate [7]: 2.5; Inhibition rate (Piruvate kinase): 8.34; Inhibition rate [8]: 3.35; Inhibition rate [9]: 4.87; Activation rate (Tubulin alpha-1): 3.23; Activation rate (Tubulin beta-2): 2.56; Activation rate (Tubulin beta-3): 3.15; Inhibition rate [10]: 2.49; Inhibition rate [11]: 4.32; Activation rate (Prohibitin): 2.28
0.06 µM	0.42 µM	1.2 µM	O=c1[nH]cc(F)c(=O)[nH]1 [5-Fluorouracil, 5-fluorouracil]	1.2 µM	–

Molecule	IC50 (H-125 or OCI-AML3 cells; [13])	IC50 (H-125 or OCI-AML3 cells; [14])	IC50 (H-125 or OCI-AML3 cells; [16])	IC50 (H-125 cells; [17])	further results
N.N.O=C([O-])C1(C(=O)[O-])CCC1.[Pt+2] [Carboplatin, carboplatin]	0.036 µM	0.07 µM	–	–	IC50 (H-125 or OCI-AML3 cells; [12]): 0.65 µM; interaction with P15, antitumor effect in vivo [1]: synergistic interactions; IC50 (H-125 cells; [15]): 0.45 µM
O=C1c2c(O)ccc(O)c2C(=O)c2c(NCCNCCO)ccc(NCCNCCO)c21 [Mitoxantrone, mitoxantrone]	0.032 µM	0.064 µM	0.754 µM	0.7 µM	interaction with P15, antitumor effect in vivo (OCI-AML3 cells): great synergistic interaction
CO[C@@]12[C@H](COC(N)=O)C3=C(C(=O)C(C)=C(N)C3=O)N1C[C@@H]1N[C@@H]12 [Mitomycin C, mitomycin C]	0.009 µM	0.093 µM	0.994 µM	0.994 µM	antitumor effect (tumor volume) [1]: complete tumor regression
Nc1nc(F)nc2c1ncn2[C@@H]1O[C@H](CO)[C@@H](O)[C@@H]1O [Fludarabine, fludarabine]	0.05 µM	0.096 µM	0.87 µM	0.865 µM	–
N.N.[Cl][Pt][Cl] [Cisplatin, cisplatin]	0.04 µM	0.53 µM	–	–	IC50 (H-125 or OCI-AML3 cells; [12]): 0.72 µM; IC50 (SW948 cells [2]; P15 pre-treatment, read-out: IC50, Cytostatic drug + P15 pre-treatment): 120 µM; IC50 (SW948 cells [2]; no P15 pre-treatment, read-out: IC50, Cytostatic drug alone): ≥ 1000 µM; antitumor effect (tumor volume) [1]: complete tumor regression; chemosensibilization in vivo (tumor response to cytostatic) (SW948 cells [3]): revert the chemorefractory phenotype; IC50 (H-125 cells; [15]): 0.72 µM
